Reference: patent publication US20190376142A1, “METHOD TO DISTINGUISH TUMOR SUPRESSIVE FOXO ACTIVITY FROM OXIDATIVE STRESS” (KONINKLIJKE PHILIPS N.V., priority 2016, published 2019)

Columns and labels:
[1] = tested on: FOXO activity in Human Umbilical Vein Endothelial Cells (HUVEC); test: Computational FOXO model on HUVEC with 4OHT-inducible FOXO3.A3-ER (GSE16573); type: cell-based
From the text: A. The Bayesian network structure used as a basis for the modeling approach shown as a simplified model of the transcriptional program of a cellular signal transduction pathway, consisting of three types of nodes: transcription factor, target gene and microarray probe sets corresponding to target genes. B. Training of the computational FOXO3 model on a public GEO dataset GSE16573, consisting of Affymetrix microarray 2.0 Plus expression data from HUVEC containing a 4OHT-inducible FOXO3.A3-ER expression construct. Each bar represents a sample analysis result.
The probabilistic relations in the Bayesian network model were made quantitative using experimental data to enable quantitative reasoning on new experimental samples.

[2] = tested on: FOXO3 activity in EGFR-mutant HCC827 lung cancer cell line; test: Computational FOXO model on drug-treated HCC827 cells (GSE51212); conditions: HCC827 treated with drug vs untreated (FOXO scored inactive); public dataset GSE51212
Procedure: (§1) Public datasets from samples that were treated with drugs targeting growth factor pathways. A. GEO GSE51212. […] B. GEO GSE30516 dataset.
(§2) Once the model has been calibrated, it could be used on microarray (Affymetrix HG-U133Plus2.0) data of new tumor samples by entering probeset measurements as observations in the bottom layer, and inferring backwards in the model the activity probability of the FOXO3 transcription factor. The model was frozen and applied to microarray data of cell line and tissue samples by entering probeset measurements as observations into the model, inferring backwards FOXO transcription factor activity score as the log-2 value of the FOXO transcription factor odds p/(1−p).
(§3) Parameters enforcing relationships between the FOXO transcription complex and target genes were manually set to improve generalization behavior of the model across different tissue types (11). Parameters describing relationships between target genes and their respective probe sets were calibrated on a public data set of Human Umbilical Vein Endothelial Cells (HUVEC) carrying inducible constitutively active FOXO3.A3-ER, and a threshold for FOXO-activity was set (GSE16573) (20).

[3] = tested on: FOXO activity in BT20 (triple-negative breast cancer cell line); test: Computational FOXO model on Erlotinib-treated BT20 cells (GSE30516); conditions: BT20 treated with Erlotinib; public dataset GSE30516
Procedure: as §1, §2, §3

[4] = tested on: FOXO activity in MDA-MB-453 (HER2 positive breast cancer cell line); test: Computational FOXO model on Erlotinib-treated MDA-MB-453 cells (GSE30516); conditions: MDA-MB-453 treated with Erlotinib; public dataset GSE30516
Procedure: as §1, §2, §3

[5] = tested on: FOXO activity in MCF7 (ER positive breast cancer cell line); test: Computational FOXO model on Erlotinib-treated MCF7 cells (GSE30516); conditions: MCF7 treated with Erlotinib; public dataset GSE30516
Procedure: as §1, §2, §3

## CC/C(=C(\c1ccc(O)cc1)c1ccc(OCCN(C)C)cc1)c1ccccc1 [4OHT]
[1]; HUVEC-FOXO3.A3-ER treated with 4OHT
  FOXO activity predicted by the Bayesian model: highly active FOXO
[1]; HUVECs expressing FOXO3.A3-ER-H212R (reduced DNA binding) treated with 4OHT
  FOXO activity predicted by the Bayesian model: low FOXO3 activity
[1]; HUVECs without construct, treated with 4OHT
  FOXO activity predicted by the Bayesian model: low FOXO activity

## Cn1c(=O)n(-c2ccc(C(C)(C)C#N)cc2)c2c3cc(-c4cnc5ccccc5c4)ccc3ncc21 [BEZ235]
[2]
  FOXO3 activity scored by the FOXO model: scored active

## C#Cc1cccc(Nc2ncnc3cc(OCCOC)c(OCCOC)cc23)c1 [Erlotinib]
[3]
  FOXO activity score: increased
[4]
  FOXO activity score: increased
[5]
  FOXO activity score: increased
